Experimental data as given in patent publication US20250263370A1 (Tay Therapeutics Limited, priority 2022, published 2025).
Several values for one entry are separate records, joined by “and”; a condition that tells them apart may be missing. Equal entries are not always repeated. Where two headings read alike, the source gives them in different places.

Assay: Pharmacokinetics and plasma concentration of Example 101 in Lewis rats after oral administration (CIA study)
Type: in vivo, Lewis rat
[1] = Lewis rats, oral, 10 mg/kg, day 20, mean
[2] = Lewis, rat, plasma, oral, 10 mg/kg, oral, day 0, 10 mg/kg, per test subject, read-out: Plasma concentration
[3] = Lewis, rat, plasma, oral, 10 mg/kg, oral, day 20, 10 mg/kg, per test subject, read-out: Plasma concentration
[4] = Lewis, rat, plasma, oral, 10 mg/kg, plasma, oral, day 0, 10 mg/kg, read-out: Mean Concentration
[5] = Lewis, rat, plasma, oral, 10 mg/kg, plasma, oral, day 20, 10 mg/kg, read-out: Mean Concentration
[6] = Lewis, rat, plasma, po, 10 mg/kg, Lewis rats, oral, 10 mg/kg, day 20, mean
[7] = Lewis, rat, plasma, po, 10 mg/kg, oral, day 0, 10 mg/kg, Mean

CNC(=O)c1[nH]c(C(=O)NC2CCC2)cc1O[C@@H](C)c1ccccc1 (stereo in doubt) [Example 101, N^5-cyclobutyl-N^2-methyl-3-(1-phenylethoxy)-1H-pyrrole-2,5-dicarboxamide]
Plasma concentration (Day 21, Group 5 (CIA), 3 mg/kg, per animal): 37.5 ng/mL and 59.4 ng/mL and 64.9 ng/mL and 49.5 ng/mL and 65.2 ng/mL and 71.9 ng/mL and 69.6 ng/mL | Plasma concentration (Day 21, Group 6 (CIA), 10 mg/kg, per animal): 270 ng/mL and 134 ng/mL and 209 ng/mL and 281 ng/mL and 251 ng/mL and 313 ng/mL and 175 ng/mL and 28.4 ng/mL | Plasma concentration (Day 21, Group 7 (CIA), 30 mg/kg, per animal): 1620 ng/mL and 1260 ng/mL and 1430 ng/mL and 1220 ng/mL and 1350 ng/mL and 2000 ng/mL and 1440 ng/mL | day 20 plasma concentration versus dose (Lewis rats, oral administration): appeared to increase in a dose-dependent manner | AUClast/D [1]: 528 (ng·h/mL)/(mg/kg) | AUC—% Extrap—obs [1]: 1.11% | time at which plasma levels peaked after the second daily dose (Lewis rats, oral, second daily dose administered at 8 h): 10 h | concentration at 21 day (Lewis, rat, plasma, oral, 3 mg/kg, Day 21, Group 5 (CIA), 3 mg/kg, per animal, read-out: Plasma Concentration): 54.9 ng/mL | concentration at 21 day (Lewis, rat, plasma, oral, 3 mg/kg, Day 21, Group 5 (CIA), 3 mg/kg, read-out: Mean Plasma Concentration): 59.1 ng/mL | concentration at 21 day (Lewis, rat, plasma, oral, 10 mg/kg, Day 21, Group 6 (CIA), 10 mg/kg, read-out: Mean Plasma Concentration): 208 ng/mL | concentration at 0.5 h [2]: 738 ng/mL | concentration at 1 h [2]: 1090 ng/mL | concentration at 2 h [2]: 1110 ng/mL | concentration at 4 h [2]: 1170 ng/mL | concentration at 8 h [2]: 190 ng/mL | concentration at 10 h [2]: 1880 ng/mL | concentration at 12 h [2]: 772 ng/mL | concentration at 14 h [2]: 324 ng/mL | concentration at 0.25 h [3]: 1260 ng/mL | concentration at 0.5 h [3]: 1660 ng/mL | concentration at 1 h [3]: 1600 ng/mL | concentration at 2 h [3]: 841 ng/mL | concentration at 4 h [3]: 452 ng/mL | concentration at 10 h [3]: 1170 ng/mL | concentration at 12 h [3]: 258 ng/mL | concentration at 0.25 h [4]: 502 ng/mL | concentration at 0.5 h [4]: 706 ng/mL | concentration at 1 h [4]: 1270 ng/mL | concentration at 2 h [4]: 1240 ng/mL | concentration at 4 h [4]: 997 ng/mL | concentration at 8 h [4]: 148 ng/mL | concentration at 10 h [4]: 1930 ng/mL | concentration at 12 h [4]: 799 ng/mL | concentration at 14 h [4]: 439 ng/mL | concentration at 24 h (Lewis, rat, plasma, oral, 10 mg/kg, plasma, oral, day 0, 10 mg/kg): 57 ng/mL | concentration at 0.25 h [5]: 1410 ng/mL | concentration at 0.5 h [5]: 1650 ng/mL | concentration at 1 h [5]: 1640 ng/mL | concentration at 2 h [5]: 1140 ng/mL | concentration at 4 h [5]: 494 ng/mL | concentration at 8 h [5]: 169 ng/mL | concentration at 10 h [5]: 1450 ng/mL | concentration at 12 h [5]: 406 ng/mL | concentration at 14 h [5]: 138 ng/mL | concentration at 24 h (Lewis, rat, plasma, oral, 10 mg/kg, plasma, oral, day 20, 10 mg/kg): 25 ng/mL | concentration at 21 day (Lewis, rat, plasma, oral, 30 mg/kg, Day 21, Group 7 (CIA), 30 mg/kg, per animal, read-out: Plasma Concentration): 2290 ng/mL | concentration at 21 day (Lewis, rat, plasma, oral, 30 mg/kg, Day 21, Group 7 (CIA), 30 mg/kg, read-out: Mean Plasma Concentration): 1580 ng/mL | AUC(0-inf) [6]: 10700 ng·h/mL | AUC(0-t) [6]: 10600 ng·h/mL | half-life [6]: 3.28 h | Cmax (Lewis, rat, plasma, po, 10 mg/kg, Lewis rats, oral, 10 mg/kg, day 20, mean, read-out: Cmax): 1710 ng/mL | MRT inf (Lewis, rat, plasma, po, 10 mg/kg, Lewis rats, oral, 10 mg/kg, day 20, mean, read-out: MRTInf—obs): 6.66 h | Tmax (Lewis, rat, plasma, po, 10 mg/kg, Lewis rats, oral, 10 mg/kg, day 20, mean, read-out: Tmax): 0.67 h | AUC(0-inf) [7]: 15400 ng·h/mL | AUC(0-t) [7]: 15000 ng·h/mL
